Data published in publication PMC9049077, “Unveiling the anti-cancer mechanism for half-sandwich and cyclometalated Ir(III)-based complexes with functionalized α-lipoic acid” (RSC Advances, 2020).
Read-outs that look alike come from different tables or passages of the source.

Tests used:
[1] = test system: A549 cells (human lung carcinoma); experiment: MTT cytotoxicity assay, A549; assay type: cell-based
Method: (§1) The α-lipoic acid (LA) and the functionalized N^∧N-LA ligand were also evaluated for comparison. […]
(§2) Cell lines and culture conditions
(§3) A549, A549R, MCF-7, A2780, HeLa and LO2 cells were obtained from Experimental Animal Center of Sun Yat-Sen University (Guangzhou, China). Cells were routinely cultured in DMEM (Dulbecco’s modified Eagle’s medium, Gibco BRL) or RPMI 1640 (Roswell Park Memorial Institute medium 1640, Gibco BRL) medium containing 10% FBS (fetal bovine serum, Gibco BRL), 100 μg/mL streptomycin, and 100 U/mL penicillin (Gibco BRL). The cells were cultured in tissue culture flasks in a humidified incubator (BB 150 CO2 incubator, Thermo Fisher Scientific, USA), which provided an atmosphere of 5% CO2 and 95% air at a constant temperature of 37 °C. Cisplatin-resistant A549R […]
(§4) cells were cultured in RPMI 1640 with additional cisplatin to maintain the drug resistance.
(§5) Cytotoxicity assay (MTT assay)
(§6) The cytotoxicity of LA, N^N-LA and complexes synthesized towards various cancer cell lines was determined by MTT assay. After plating 5000 cells per well in 96-well plates, the cells were pre-incubated in drug-free media for 24 h at 37 °C to grow to confluence. The complexes were dissolved in DMSO (1%, v/v) just before the experiments, and diluted with fresh media immediately. Then, cells […]
(§7) that, 20 μL of MTT solution (5 mg/mL) was added to each well, and the plates were incubated for an additional 4 h. The medium was carefully removed and 150 μL DMSO was added per well. The plates were incubated for 10 min with shaking. The absorbance at 595 nm was measured using a microplate reader (LabServ K3, Part of Thermo Fisher Scientific, USA). Each well was triplicated to gain the mean values. IC 50 values quoted are mean ± SEM. […]

[2] = test system: A549R cells (cisplatin-resistant A549); experiment: MTT cytotoxicity assay, A549R; assay type: cell-based, human
Method: as §1, §2, §3, §4, §5
(§8) The cytotoxicity of LA, N^N-LA and complexes synthesized towards various cancer cell lines was determined by MTT assay. After plating 5000 cells per well in 96-well plates, the cells were pre-incubated in drug-free media for 24 h at 37 °C to grow to confluence. The complexes were dissolved in DMSO (1%, v/v) just before the experiments, and diluted with fresh media immediately. Then, cells were incubated with a series of different concentrations of the tested complexes for 44 h at 37 °C. After that, 20 μL of MTT solution (5 mg/mL) was added to each well, and the plates were incubated for an additional 4 h. The medium was carefully removed and 150 μL DMSO was added per well. The plates were incubated for 10 min with shaking. The absorbance at 595 nm was measured using a microplate reader (LabServ K3, Part of Thermo Fisher Scientific, USA). Each well was triplicated to gain the mean values. IC 50 values quoted are mean ± SEM. […]

[3] = test system: MCF-7 cells (human breast carcinoma); experiment: MTT cytotoxicity assay, MCF-7; assay type: cell-based
Method: as §1, §2, §3, §4, §5, §8

[4] = test system: A2780 cells (epithelial ovarian carcinoma); experiment: MTT cytotoxicity assay, A2780; assay type: cell-based
Method: as §1, §2, §3, §4, §5, §8

[5] = test system: HeLa cells (human cervical carcinoma); experiment: MTT cytotoxicity assay, HeLa; assay type: cell-based
Method: as §1, §2, §3, §4, §5, §6, §7

[6] = test system: LO2 cells (human normal liver); experiment: MTT cytotoxicity assay, LO2; assay type: cell-based
Method: as §1, §2, §3, §4, §5, §8

[7] = test system: A549 cells (human lung carcinoma); set-up: method as in earlier work; conditions: 24 h incubation; ref 29 (supplementary reference 9); cited from earlier work
[8] = test system: MCF-7 cells (human breast carcinoma); set-up: method as in earlier work; conditions: 24 h incubation; ref 29 (supplementary reference 9); cited from earlier work
[9] = test system: MCF-7 cells (human breast carcinoma); experiment: MTT cytotoxicity assay, MCF-7; assay type: cell-based; conditions: 24 h incubation
[10] = test system: HeLa cells (human cervical carcinoma); set-up: method as in earlier work; conditions: 24 h incubation; ref 29 (supplementary reference 9); cited from earlier work
[11] = test system: tested cancer cell lines; experiment: MTT cytotoxicity assay, summary over the tested cell lines; assay type: cell-based; conditions: Homo sapiens, 48 h, read-out: IC50 over all tested cancer cell lines
Method: as §1, §2, §3, §4, §5
The cytotoxicity of LA, N^N-LA and complexes synthesized towards various cancer cell lines was determined by MTT assay. After plating 5000 cells per well in 96-well plates, the cells were pre-incubated in drug-free media for 24 h at 37 °C to grow to confluence. […] The absorbance at 595 nm was measured using a microplate reader (LabServ K3, Part of Thermo Fisher Scientific, USA). […]

[12] = reported value; cited from earlier work
[13] = test system: A549 cells; conditions: cited from earlier work
[14] = Homo sapiens, A549, 48 h incubation

Compound | IC50 ([1]; 48 h incubation) | IC50 ([2]; 48 h incubation) | IC50 ([3]; 48 h incubation) | IC50 ([4]; 48 h incubation) | IC50 ([5]; 48 h incubation) | IC50 ([6]; 48 h incubation) | other results
N.N.[Cl][Pt][Cl] [cis-Pt, cisplatin, reference compound] | 10.5 ± 0.63 µM | 17.9 ± 0.77 µM | 8.7 ± 0.57 µM | 4.32 ± 0.25 µM | 7.59 ± 0.46 µM | 3.97 ± 0.25 µM | IC50 ([1]; 24 h incubation): 22.4 ± 1.5 µM; IC50 ([5]; 24 h incubation): 17.9 ± 0.47 µM; IC50 [7]: 38.6 ± 0.9 µM; IC50 [8]: 31.4 ± 3 µM; IC50 [9]: 23.5 ± 0.82 µM; IC50 [10]: 20.2 ± 1.8 µM
O=C(O)CCCCC1CCSS1 (stereo not drawn) [LA, α-lipoic acid] | – | – | – | – | – | – | IC50 [1, 14]: > 200 µM; IC50 [2, 14]: > 200 µM; IC50 ([3]; Homo sapiens, MCF7, 48 h incubation): > 200 µM; IC50 ([4]; Homo sapiens, A2780, 48 h incubation): > 200 µM; IC50 ([5]; Homo sapiens, HeLa, 48 h incubation): > 200 µM; IC50 ([6]; Homo sapiens, L02, 48 h incubation): > 200 µM; IC50 [11]: > 200 µM
C(=NC(c1ccccc1)(c1ccccc1)c1ccccc1)c1ccccn1.Cc1c(C)c(C)[c-](C)c1C.F[P-](F)(F)(F)(F)F.[Cl-].[Ir+3] [[(η^5-Cp*)Ir(N^∧N)Cl]PF6, [(η^5-Cp*)Ir(N^∧N)Cl]PF6 (N^∧N = (triphenylmethyl)(pyridine-2-ylmethylene)amine)] | – | – | – | – | – | – | Hydrolysis rate constant [12]: 0.0084 min⁻¹; Cellular uptake in A549 cells [13]: 4.5 ng per 10^6 cells
Cc1ccnc(-c2cc(CNC(=O)CCCCC3CCSS3)ccn2)c1 (stereo not drawn) [N^∧N-LA] | > 200 µM | > 200 µM | 139 ± 2.2 µM | 84.5 ± 4.1 µM | 67.5 ± 5 µM | 96 ± 6.7 µM | –
Cc1ccnc(-c2cc(CN)ccn2)c1.F[P-](F)(F)(F)(F)F.[Ir+3].[c-]1ccccc1-c1ccccn1.[c-]1ccccc1-c1ccccn1 [Ir-NH2, [Ir(C^∧N)2(N^∧N-NH2)]PF6] | 11.2 ± 0.65 µM | 19 ± 0.59 µM | 11.6 ± 0.48 µM | 8.08 ± 0.2 µM | 21 ± 0.95 µM | 8.97 ± 0.55 µM | –
